{"source": "patent US20130012479A1", "about": "“POLYMORPHS OF 6-(PIPERIDIN-4-YLOXY)-2H-ISOQUINOLIN-1-ONE HYDROCHLORIDE” (SANOFI, priority 2011, published 2013)", "type_in_all_cases": "physicochemical", "key": {"[1]": {"experiment": "Temperature-resolved XRPD, DSC and TGA on heating", "conditions": "for solid-solid transition prior to melting: on heating", "protocol": "In this temperature range, transformation to phase 3 was observed as determined by XRPD.\n(§1) All X-ray powder diffraction was performed with Stoe Stadi-P transmission diffractometers using CuKα1 radiation (Lambda is 1.54060 Angström). For room temperature powder diffraction, linear position sensitive detectors were used while for temperature-resolved XRPD image plate position sensitive detectors (IP-PSDs) were used. Unless stated otherwise, X-ray powder diffraction was performed at room temperature. Dry samples were investigated in a flat preparation whereas suspensions were investigated in quartz glass capillaries. The measured data were evaluated and plotted with the Software WinXPOW V2.12.\nThe thermogravimetric analyses were performed with a METTLER TGA851e (module TGA/SDTA851e/SF1100/042). 100 μl Al crucibles sealed with lid were used. The sample changer punches a pinhole into the lid immediately before the start of the measurement. The oven cell is purged with a nitrogen gas flow of about 50 mL/min. The measurements typically start with a hold time of about 25 min at 25° C., followed by heating of the sample with a rate of 10°/min.\nAll DSC measurements were performed with a Mettler DSC822e (module DSC822e/700/109/414935/0025). If not indicated differently, 40 μl Al crucibles with sealed lid and hole were used. All measurements were carried out in a nitrogen gas flow of 50 mL/minute. The heating rate was 10° C./minute unless indicated otherwise. Temperature and heat flow were calibrated via the melting peak of an indium reference"}, "[2]": {"experiment": "Maturation experiments (slurry conversion) of suspensions", "conditions": "for relative stability of the phase from maturation experiments: suspensions of phase mixtures in dry organic solvents, temperature range from 0 to 40° C.; for solid phase after maturation: 20° C., 35 days", "protocol": "By maturation experiments (slurry conversion) at the given temperature the relative stability of the polymorphs of compound (I) and the hydrate was investigated.\nThe following maturation experiment was performed by stirring the suspension under the specified conditions, starting from the dihydrate. The sample was investigated by XRPD in suspension, after vacuum filtration as well as after drying over night at 40° C. in vacuum (<50 mbar). The isolated material was also investigated by DSC and TGA.\na) Maturation of 0.210 g dihydrate of compound (I) in 0.4 mL of water at 20° C. for 35 days. Similar, maturation of the dihydrate was done in water/methanol (vol/vol 1:1) and in water/ethanol (vol/vol 1:1).\nThe following maturation experiments were performed by stirring the suspension under the specified conditions and isolating the solid by vacuum filtration, starting from dihydrate of compound (I). The sample was investigated by XRPD in suspension, after vacuum filtration as well as after drying. The isolated material was also investigated by DSC and TGA.\n(b) Maturation of 0.203 g of dihydrate of compound (I) in 1.2 mL of methanol at 20° C. for 35 days. (c) Maturation was also done as in (b) by using ethanol, 1-propanol or 2-propanol.\nThe following maturation experiments of suspensions of phase mixtures of the dihydrate of compound (I) and phases consisting of polymorphs 1, 3 and 4 were performed at 0, 20 and 40° C. The product was isolated by vacuum filtration and analyzed after drying.\ne) Maturation of a mixture of 0.3 mg phase 1, 23.9 mg phase 3, 29.9 mg phase 4 and 27.9 mg of the dihydrate in 0.7 mL 2-propanol at 0° C. for 2 weeks. f) Maturation of a mixture of 0.3 mg phase 1, 27.2 mg phase 3, 18.1 mg phase 4 and 29.6 mg of the dihydrate in 2.0 mL 2-butanol at 0° C. for 2 weeks. g) Similar experiments as in e) and f) were done with corresponding mixtures of phase 1, phase 3, phase 4 and the dihydrate in 2-propanol and 2-butanol at 20° C. and at 40° C., respectively"}, "[3]": {"experiment": "Humidity-controlled (humidity-resolved) XRPD in a humidity chamber", "conditions": "for time until transformation into the dihydrate at 95% relative humidity: sample held at 95% r.h.", "protocol": "When humidity-controlled XRPD was performed at 25 and 40° C., widely identical results were obtained.\nExposure to elevated humidity causes transformation to the dihydrate as determined with humidity-controlled XRPD performed at 25° C. […] Phase 1 transformed into the dihydrate after about 15 min at 95%, which in turn changed to phase 2 after about 40 min at 2% r.h.\nExposure to elevated humidity causes transformation to the dihydrate as determined by humidity-controlled XRPD at 25° C. […] As a result phase 3 transformed into the hydrate after about 30 min at 95%, which in turn changed to phase 2 after about 30 min at 2% r.h.\nExposure to elevated humidity causes transformation to the dihydrate as determined by humidity-controlled XRPD. […] As a result phase 4 transformed into the dihydrate after about 15 min at 95%, which in turn changed to phase 2 after about 20 min at 2% r.h.\nas §1"}, "[4]": {"experiment": "Dynamic vapor sorption (DVS) water vapor sorption and desorption isotherms", "conditions": "25° C.", "protocol": "Moreover, the dihydrate may also be characterized by its DVS (dynamic vapor sorption) water vapor sorption and desorption isotherms measured at 25° C. as shown in FIG. 3. Before starting the sorption cycle the dihydrate sample is treated with dry nitrogen gas resulting in a transformation into phase 2 as shown by humidity resolved XRPD. […] A weight loss starts below 20% relative humidity and becomes strong below 10%, especially below 5%. The change in mass at low relative humidity is completely reversible and when the humidity increases again, the rehydration proceeds rapidly with small samples. However, for bulk samples rehydration of over-dried samples can take considerably longer and rehydration may require several days. Almost identical water sorption and desorption isotherms are observed at 40° C.\nMoreover, phase 3 may also be characterized by its DVS (dynamic vapor sorption) water vapor sorption and desorption isotherms measured at 25° C. […] With decreasing humidity the dihydrate converts back at low humidity (below about 10% r.h.) into phase 2 (cycle 1, desorption). Phase 2 then converts into the dihydrate with increasing humidity and along the same isotherm it converts back with decreasing humidity into polymorph 2 (cycle 2, see also FIG. 3)\nMoisture sorption/desorption isotherms were recorded on a DVS-1 from Surface Measurement Systems. […] Typical total measurement times for both cycles are about 20-30 hours."}, "[5]": {"experiment": "Drying of the dihydrate, retention of crystal structure", "conditions": "dihydrate dried", "source_text": "In a further embodiment of the hydrate the water content is 11.4% (w/w). In a further embodiment the hydrate contains 2.0 molecules water per molecule (I). Although the hydrate phase typically contains about 10-12.5% water it can also occur with lower water content. The crystal structure of the hydrate remains even if the dihydrate is dried and the remaining water content is down to about 3%. Water uptake is reversible if humidity in the environment is raised again. The water content in the isolated product depends on the drying conditions used during work up of the hydrate after crystallisation."}, "[6]": {"experiment": "Storage under usual storage conditions (25° C./65% relative humidity)", "source_text": "Moreover, the corresponding amorphous material is hygroscopic and the water content varies much stronger with the relative humidity compared to the dihydrate. This water uptake and variability in water content makes precise dosing during drug product manufacturing difficult. […] Accordingly, the crystalline dihydrate is therefore the preferred solid form for drug product manufacturing."}, "[7]": {"experiment": "Storage at 20° C. and 75% relative humidity", "protocol": "Also storage of phase 1 at 20° C. and 75% relative humidity caused complete conversion to the dihydrate within 3 weeks. The rate of conversion correlates with the relative humidity.\n(§2) Also storage of phase 3 at 20° C. and 75% relative humidity caused complete conversion to the dihydrate within 3 weeks. The rate of conversion correlates with the relative humidity. When suspended in water, complete transformation into the dihydrate was observed almost immediately (<10 min).\nAlso storage of phase 4 at 20° C. and 75% relative humidity caused complete conversion to the dihydrate within 3 weeks. The rate of conversion apparently correlates with the relative humidity."}, "[8]": {"experiment": "Suspension in water, phase transformation", "protocol": "as §2"}, "[9]": {"experiment": "Stability of the solvate outside the mother liquor", "conditions": "in the presence of humidity starts to transform to the hydrate", "source_text": "Thus, a further aspect of the present invention relates to the use of the methyl acetate solvate of compound (I) for the production of the hydrate, for example by subjecting it to conditions, such as an elevated temperature and/or humidity which facilitate the loss of methyl acetate and attracting water."}, "[10]": {"conditions": "listed as phase 1, hydrochloride"}, "[11]": {"conditions": "listed as phase 4, hydrochloride"}, "[12]": {"conditions": "listed as phase 3, hydrochloride"}}, "note": "Entries after “also recorded” stand apart in the source; their conditions may differ. Structures can show the parent of a compound that is named as a salt."}
{"molecule": "O=c1[nH]ccc2cc(OC3CCNCC3)ccc12", "note": "[1,4-dioxane solvate, 6-(Piperidin-4-yloxy)-2H-isoquinolin-1-one hydrochloride×0.5 1,4-dioxane solvate]", "values": [{"measurement": "stability of the solvate on heating", "setting": "[1]", "value": "relatively stable"}]}
{"molecule": "O=c1[nH]ccc2cc(OC3CCNCC3)ccc12", "note": "[polymorph 1, 6-(Piperidin-4-yloxy)-2H-isoquinolin-1-one hydrochloride]", "values": [{"measurement": "solid-solid transition prior to melting", "setting": "[1]; [10]", "value": "melted without preceding solid-solid transitions; also recorded: No transformation into another crystalline phase"}, {"measurement": "relative stability of the phase from maturation experiments", "setting": "[2]; [10]", "value": "only a metastable polymorph"}, {"measurement": "time until transformation into the dihydrate at 95% relative humidity", "setting": "[3]; listed as Phase 1, hydrochloride", "value": "about 15 min"}]}
{"molecule": "O=c1[nH]ccc2cc(OC3CCNCC3)ccc12", "note": "[dihydrate, 6-(Piperidin-4-yloxy)-2H-isoquinolin-1-one hydrochloride dihydrate]", "values": [{"measurement": "temperature below which the form is stable", "setting": "[1]", "value": "below 90 °C"}, {"measurement": "temperature at which transformation to phase 3 starts", "setting": "[1]; temperature-resolved XRPD, on heating with loss of water", "value": "about 90 °C"}, {"measurement": "solid phase after maturation", "setting": "[2]; 2-butanol, after drying", "value": "Polymorph 4 was obtained"}, {"measurement": "solid phase after maturation", "setting": "[2]; methanol, ethanol, 1-propanol or 2-propanol", "value": "polymorph 3 was obtained"}, {"measurement": "solid phase after maturation", "setting": "[2]; water, water/methanol (1:1) or water/ethanol (1:1)", "value": "remained as dihydrate"}, {"measurement": "relative humidity below which the dihydrate converts into phase 2", "setting": "[4]; cycle 1, desorption", "value": "below 10%"}, {"measurement": "relative humidity below which weight loss starts", "setting": "[4]; desorption cycle", "value": "below 20%"}, {"measurement": "hygroscopicity / water content as a function of relative humidity", "setting": "[4]; hydrochloride dihydrate", "value": "quite constant water content"}, {"measurement": "water content in the desorption cycle", "setting": "[4]; relative humidities between 95% and 20%", "value": "almost constant"}, {"measurement": "relative humidity at which reversible transformation into phase 2 was observed", "setting": "[3]; 25 and 40° C.", "value": 2, "unit": "%"}, {"measurement": "time until the dihydrate changed to phase 2 at 2% r.h.", "setting": "[3]; sample held at 2% r.h., hydrochloride dihydrate", "value": "about 30 min"}, {"measurement": "remaining water content down to which the crystal structure of the hydrate remains", "setting": "[5]", "value": "about 3%"}, {"measurement": "stability under usual storage conditions", "setting": "[6]", "value": "stable for more than two years"}, {"measurement": "decomposition on storage", "setting": "[6]; more than two years", "value": "no detectable decomposition"}]}
{"molecule": "O=c1[nH]ccc2cc(OC3CCNCC3)ccc12", "note": "[polymorph 4, 6-(Piperidin-4-yloxy)-2H-isoquinolin-1-one hydrochloride]", "values": [{"measurement": "solid-solid transition prior to melting", "setting": "[1]; [11]", "value": "No transformation into another crystalline phase 1, 2 or 3; also recorded: melted without preceding solid-solid transitions"}, {"measurement": "relative stability of the phase from maturation experiments", "setting": "[2]; [11]", "value": "only a metastable one"}, {"measurement": "time until transformation into the dihydrate at 95% relative humidity", "setting": "[3]; [11]", "value": "about 15 min"}, {"measurement": "time to complete conversion to the dihydrate on storage", "setting": "[7]", "value": "≤ 3", "unit": "weeks"}]}
{"molecule": "O=c1[nH]ccc2cc(OC3CCNCC3)ccc12", "note": "[polymorph 2, 6-(Piperidin-4-yloxy)-2H-isoquinolin-1-one hydrochloride]", "values": [{"measurement": "solid-solid transition prior to melting", "setting": "[1]; listed as phase 2, hydrochloride", "value": "melted without preceding solid-solid transitions"}]}
{"molecule": "O=c1[nH]ccc2cc(OC3CCNCC3)ccc12", "note": "[amorphous material, 6-(Piperidin-4-yloxy)-2H-isoquinolin-1-one hydrochloride]", "values": [{"measurement": "hygroscopicity / water content as a function of relative humidity", "setting": "[4]; hydrochloride", "value": "hygroscopic"}]}
{"molecule": "O=c1[nH]ccc2cc(OC3CCNCC3)ccc12", "note": "[polymorph 3, 6-(Piperidin-4-yloxy)-2H-isoquinolin-1-one hydrochloride]", "values": [{"measurement": "solid-solid transition prior to melting", "setting": "[1]; [12]", "value": "melted without preceding solid-solid transitions; also recorded: No transformation into another crystalline phase"}, {"measurement": "relative stability at low relative humidity", "setting": "[2]; at and around room temperature, less than about 10% relative humidity", "value": "the most stable phase"}, {"measurement": "relative stability of the phase from maturation experiments", "setting": "[2]; [12]", "value": "the most stable anhydrous phase; also recorded: thermodynamically most stable anhydrous form"}, {"measurement": "relative humidity above which the phase changed into the dihydrate", "setting": "[4]; cycle 1, sorption", "value": "above 80%"}, {"measurement": "time until transformation into the dihydrate at 95% relative humidity", "setting": "[3]; [12]", "value": "about 30 min"}, {"measurement": "time to complete transformation into the dihydrate when suspended in water", "setting": "[8]", "value": "< 10", "unit": "min"}]}
{"molecule": "O=c1[nH]ccc2cc(OC3CCNCC3)ccc12", "note": "[methyl acetate solvate, 6-(Piperidin-4-yloxy)-2H-isoquinolin-1-one hydrochloride]", "values": [{"measurement": "stability of the solvate outside the mother liquor", "setting": "[9]", "value": "only moderately stable"}]}
